Here are results for 39 compounds from PubChem BioAssay AID743026 (Vanderbilt Specialized Chemistry Center, 2013).

SMILES strings stand for the structures. pIC50: −log10 of the molar value. The source made the active and inactive calls.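 How the source made its calls: active means IC50 under 10 µM against human M5, lowering the acetylcholine-driven calcium signal; inactive means the rest.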

In the first test the target is Muscarinic acetylcholine receptor M5 (Homo sapiens) (UniProt P08912). Nature of the test: M5 muscarinic receptor negative allosteric modulators, dose response, cell-based, concentration-response curves, human M5 (AID 743026). The conditions noted are these: CHO-K1 hM5, ACh EC80 calcium flux, Fluo-4. (Calcium flux is commonly read through the fluorescence of an indicator in the cells.)
Muscarinic acetylcholine receptor M5 (Homo sapiens), sequence (P08912 whole entry, looked up): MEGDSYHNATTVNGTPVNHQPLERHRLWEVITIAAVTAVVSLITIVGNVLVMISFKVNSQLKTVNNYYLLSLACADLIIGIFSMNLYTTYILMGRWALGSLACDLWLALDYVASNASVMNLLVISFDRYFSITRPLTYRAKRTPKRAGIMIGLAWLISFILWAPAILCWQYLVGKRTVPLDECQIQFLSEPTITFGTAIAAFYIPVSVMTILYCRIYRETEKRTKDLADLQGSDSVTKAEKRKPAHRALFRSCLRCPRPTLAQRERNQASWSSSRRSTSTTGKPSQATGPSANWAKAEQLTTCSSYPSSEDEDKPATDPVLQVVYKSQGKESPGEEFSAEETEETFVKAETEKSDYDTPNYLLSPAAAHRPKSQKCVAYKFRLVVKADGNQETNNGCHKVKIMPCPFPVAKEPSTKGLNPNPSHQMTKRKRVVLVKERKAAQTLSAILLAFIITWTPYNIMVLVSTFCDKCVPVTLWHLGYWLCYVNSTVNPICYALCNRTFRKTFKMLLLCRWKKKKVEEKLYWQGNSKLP
In the case of `O=C(c1ccccc1)N1CCN2C(=O)c3ccccc3C12c1ccc(Cl)cc1` (centres undefined), the pIC50 was 5.79.

`C=CCOc1ccc(C23c4ccccc4C(=O)N2CCN3C(=O)c2ccc(F)c(F)c2)cc1` (centres undefined): the pIC50 is 5.05.

In the case of `COc1ccc(C23c4ccccc4C(=O)N2CCN3C(=O)c2ccc(F)c(F)c2)cc1` (centres undefined), the pIC50 is 5.90.

`Cc1ccc(C23c4ccccc4C(=O)N2CCN3C(=O)c2ccc(SC(F)(F)F)cc2)cc1` (centres undefined): the negative-log IC50 (pIC50) is 5.39.

As to `O=C(c1ccc(SC(F)(F)F)cc1)N1CCN2C(=O)c3ccccc3C12c1ccc(F)cc1` (centres undefined), the pIC50 was 5.89.

Consider `CSc1ccc(C23c4ccccc4C(=O)N2CCN3C(=O)c2ccc(F)c(F)c2)cc1` (centres undefined), for which the pIC50 is 5.82.

`Cc1ccc(C23c4ccccc4C(=O)N2CCN3C(=O)c2ccc(OC(F)(F)F)cc2)cc1` (centres undefined): the pIC50 is 5.46.

`O=C(c1cc(F)cc(F)c1)N1CCN2C(=O)c3ccccc3C12c1ccccc1` (centres undefined): the negative logarithm of the IC50 (pIC50) was 5.42.

As for `CC(C)Oc1ccc(C(=O)N2CCN3C(=O)c4ccccc4C23c2ccc(Cl)cc2)cc1` (centres undefined), the negative-log IC50 (pIC50) is 6.10.

On to `O=C(c1ccc(SC(F)(F)F)cc1)N1CCN2C(=O)c3ccccc3C12c1ccccc1` (centres undefined), for which the pIC50 is 5.86.

As for `COc1cccc(C(=O)N2CCN3C(=O)c4ccccc4C23c2ccc(Cl)cc2)c1` (centres undefined), the pIC50 was 5.18.

On to `O=C(c1ccc(SC(F)(F)F)cc1)N1CCN2C(=O)c3ccccc3C12c1ccc(Cl)cc1` (centres undefined), for which the pIC50 was 5.51.

With `O=C(c1ccc(OC(F)F)cc1)N1CCN2C(=O)c3ccccc3C12c1ccc(Cl)cc1` (centres undefined), the pIC50 is 5.31.

As for `O=C(c1cc(F)cc(F)c1)N1CCN2C(=O)c3ccccc3C12c1ccc(Cl)cc1` (centres undefined), the pIC50 was 5.97.

Turning to `Cc1ccc(C23c4ccccc4C(=O)N2CCN3C(=O)c2ccc(F)c(F)c2)cc1` (centres undefined), the pIC50 was 5.58.

Consider `O=C(c1ccc(C(F)(F)F)cc1)N1CCN2C(=O)c3ccccc3C12c1ccccc1` (centres undefined), for which the pIC50 is 5.71.

`O=C(c1ccc2c(c1)OCO2)N1CCN2C(=O)c3ccccc3C12c1ccc(Cl)cc1` (centres undefined): the negative logarithm of the IC50 (pIC50) was 5.67.

Take `O=C(c1ccc(F)c(F)c1)N1CCN2C(=O)c3ccccc3C12c1ccccc1` (centres undefined): the pIC50 is 5.99.

In the case of `O=C(c1cccc(C(F)(F)F)c1)N1CCN2C(=O)c3ccccc3C12c1ccc(Cl)cc1` (centres undefined), the pIC50 was 5.31.

As for `O=C(c1ccc(OC(F)(F)F)cc1)N1CCN2C(=O)c3ccccc3C12c1ccccc1` (centres undefined), the pIC50 is 5.35.

Turning to `O=C(c1ccc(OC(F)(F)F)cc1)N1CCN2C(=O)c3ccccc3C12c1ccc(Cl)cc1` (centres undefined), the pIC50 is 5.63.

As for `O=C(c1cccc(C(F)(F)F)c1)N1CCN2C(=O)c3ccccc3C12c1ccc(F)cc1` (centres undefined), the pIC50 is 5.68.

For the compound `O=C(c1cccc(C(F)(F)F)c1)N1CCN2C(=O)c3ccccc3C12c1ccccc1` (centres undefined), the pIC50 was 5.52.

Regarding `O=C(c1cc(Cl)cc(Cl)c1)N1CCN2C(=O)c3ccccc3C12c1ccccc1` (centres undefined), the pIC50 is 5.24.

Turning to `Cc1ccc(C23c4ccccc4C(=O)N2CCN3C(=O)c2cc(F)cc(F)c2)cc1` (centres undefined), the pIC50 was 5.63.

On to `O=C(c1ccc(C(F)(F)F)cc1)N1CCN2C(=O)c3ccccc3C12c1ccc(Cl)cc1` (centres undefined), for which the pIC50 is 5.68.

On to `COc1ccc(C23c4ccccc4C(=O)N2CCN3C(=O)c2ccc(OC(F)(F)F)cc2)cc1` (centres undefined), for which the pIC50 is 5.17.

Take `O=C(c1ccc(F)cc1)N1CCN2C(=O)c3ccccc3C12c1ccccc1` (centres undefined): the pIC50 is 5.46.

For the compound `Cc1ccc(C(=O)N2CCN3C(=O)c4ccccc4C23c2ccc(Cl)cc2)cc1` (centres undefined), the pIC50 is 5.38.

On to `COc1ccc(C23c4ccccc4C(=O)N2CCN3C(=O)c2ccc(SC(F)(F)F)cc2)cc1` (centres undefined), for which the pIC50 was 5.09.

The test is the same for the next values; noted with them: CHO-K1 hM5, ACh EC80 calcium flux, Fluo-4; at 30 µM (top of the series).
In the case of `O=C1c2ncccc2C2(c3ccccc3)NCCN12` (centres undefined), the “% of max ACh response” value is “inactive”.

Consider `O=C(c1ccc(F)cc1)N1CCN2C(=O)c3ccccc3C12c1ccc(Cl)cc1` (centres undefined), for which the “% of max ACh response” value is “inactive”.

As to `O=C(c1ccc(F)cc1)N1CCN2C(=O)c3ncccc3C12c1ccccc1` (centres undefined), the “% of max ACh response” value is “inactive”.

As to `C[C@H]1CN[C@]2(c3ccc(Cl)cc3)c3ccccc3C(=O)N12`, the “% of max ACh response” value was “inactive”.

On to `O=C1CCC2(c3ccccc3)N1CCN2C(=O)c1ccc(F)cc1` (centres undefined), for which the “% of max ACh response” value is “inactive”.

In the case of `O=C1c2ccccc2C2(c3ccccc3)NCCN12` (centres undefined), the “% of max ACh response” value was “inactive”.

For `O=C(c1ccc(F)c(F)c1)N1CCN2C(=O)c3ncccc3C12c1ccccc1` (centres undefined), the “% of max ACh response” value was “inactive”.

`O=C(c1ccc(F)c(F)c1)N1CCCC1(c1ccccc1)c1ccc(Cl)cc1` (centres undefined): the “% of max ACh response” value is “inactive”.

On to `C[C@H]1CN(C(=O)c2ccc(F)c(F)c2)[C@]2(c3ccc(Cl)cc3)c3ccccc3C(=O)N12`, for which the “% of max ACh response” value is “inactive”.

In general, pIC50 refers to −log10 of the IC50, conventionally taken in molar units.
